Experimental data as given in US20020183335A1, “2, 4-disubstituted pyrimidine-5-carboxamide derivatives as KCNQ potassium channel modulators” (priority 2001, published 2002).
Marks after values point to notes of the source that are not given here.

Key:
[1] = target: cloned mouse KCNQ2 (mKCNQ2) (Mus musculus, UniProt Q9Z351); experiment: KCNQ oocyte two-electrode voltage clamp, KCNQ2-mediated outward current; format: cell-based; conditions: expressed as percent increase over KCNQ current in controls, Xenopus oocytes
Chain of cloned mouse KCNQ2 (mKCNQ2) (Q9Z351 whole entry): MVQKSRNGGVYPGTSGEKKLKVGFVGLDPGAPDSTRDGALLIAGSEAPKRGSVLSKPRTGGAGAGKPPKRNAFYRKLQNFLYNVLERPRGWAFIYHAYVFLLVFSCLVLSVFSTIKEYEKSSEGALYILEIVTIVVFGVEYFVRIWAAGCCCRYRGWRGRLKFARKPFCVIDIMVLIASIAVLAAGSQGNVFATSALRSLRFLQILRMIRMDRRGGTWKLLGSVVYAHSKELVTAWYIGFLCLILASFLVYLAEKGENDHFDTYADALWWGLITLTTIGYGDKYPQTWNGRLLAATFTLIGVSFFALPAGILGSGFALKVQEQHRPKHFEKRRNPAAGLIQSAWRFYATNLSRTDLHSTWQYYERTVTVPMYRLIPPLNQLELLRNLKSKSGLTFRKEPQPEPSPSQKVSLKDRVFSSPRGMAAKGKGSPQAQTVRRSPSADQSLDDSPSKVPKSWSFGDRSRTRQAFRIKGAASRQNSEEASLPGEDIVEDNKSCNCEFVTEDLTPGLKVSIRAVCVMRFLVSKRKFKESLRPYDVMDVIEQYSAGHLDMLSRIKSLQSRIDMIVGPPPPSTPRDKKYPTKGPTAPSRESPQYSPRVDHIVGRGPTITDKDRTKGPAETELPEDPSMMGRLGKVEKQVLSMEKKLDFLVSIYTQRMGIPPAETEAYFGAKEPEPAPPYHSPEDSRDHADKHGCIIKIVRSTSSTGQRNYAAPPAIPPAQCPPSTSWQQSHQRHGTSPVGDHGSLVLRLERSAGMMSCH
Description: The ability of compounds described in the present invention to open KCNQ channels and increase whole-cell outward (K^+) KCNQ-mediated currents was assessed under voltage-clamp conditions by determining their ability to increase cloned mouse KCNQ2 (mKCNQ2)-mediated, heteromultimeric KCNQ2/3 (KCNQ2/3)-mediated, and human KCNQ5 (hKCNQ5)-mediated outward currents heterologously expressed in Xenopus oocytes. Oocytes were prepared and injected using standard techniques; each oocyte was injected with approximately 50 nl of mKCNQ2, or hKCNQ5 cRNA. In the case of mKCNQ2/3 heteromultimeric channel expression, equal amounts (25-50 nL) of each cRNA were co-injected. […] Following injection, oocytes were maintained at 17° C. in ND96 medium consisting of (in mM): NaCl, 90; KCl, 1.0; CaCl2, 1.0; MgCl2, 1.0; HEPES, 5.0; pH 7.5. Horse serum (5%) and penicillin/streptomycin (5%) were added to the incubation medium. Recording commenced 2-6 days following mRNA injection. Prior to the start of an experiment oocytes were placed in a recording chamber and incubated in Modified Barth's Solution (MBS) consisting of (in mM): NaCl, 88; NaHCO3, 2.4; KCl, 1.0; HEPES, 10; MgSO4, 0.82; Ca(NO3)2, 0.33; CaCl2, 0.41; pH 7.5.
Oocytes were impaled with electrodes (1-2 MΩ) and standard 2-electrode voltage clamp techniques were employed to record whole-cell membrane currents. Recordings were accomplished using standard two-electrode voltage clamp techniques [Stuhmer et al., Methods in Enzymology, Vol. 207: 319-339 (1992)]. Voltage-clamp protocols typically consisted of a series of voltage steps 1-5 sec duration, in +10 mV steps from a holding potential of −90 mV to a maximal potential of +40 mV; records were digitized at 5 kHz and stored on a computer using pclamp data acquisition and analysis software (Axon Instruments). […]

[2] = tested on: SSS-stimulated trigeminal field response; experiment: In vivo electrophysiology: superior sagittal sinus (SSS)-stimulated trigeminal field response model of migraine; design: species or system rat
Description: Male Long-Evans rats (Harlan, 250-400 g) were used in the experiments described in this example. Prior to testing, rats were allowed access to food and water ad libitum and were maintained on a 12:12-h light/dark cycle. Rats were group housed in an Association for Assessment and Accreditation of Laboratory Animal Care (AAALAC) accredited facility and cared for in strict compliance with all applicable regulations.
Rats were anesthetized with 1.2 g/kg i.p. urethane (#U-2500, Sigma Chemical Company, St. Louis, Mo.) and given supplemental urethane as needed. […]
Stimulated field responses were recorded in the trigeminal nucleus caudalis using Teflon coated stainless-steel microelectrodes (5 megaohms impedance, Frederick Haer, Brunswick, Me.) and amplified and filtered (0.1 Hz-10 kHz) using a differential amplifier (#IsoDAM8, World Precision Instruments, Sarasota, Fla.). […]
Three baseline measures (i.e., 100% of control), each consisting of 100 evoked trigeminal field potentials, were sampled prior to drug injection. […] Following injection of test substances, data were sampled for 1 hour, averaged into 5 minute bins (90 evoked potentials) and expressed as a percent change from average baseline values for the purposes of statistical analysis. Data were analyzed using repeated measures analyses of variance comparing vehicle and drug effects. […]

| SMILES | KCNQ2 Current ([1]; at 20 μM) | also measured |
| --- | --- | --- |
| O=C(NCc1ccc(F)cc1)c1cnc(N2CCOCC2)nc1C1CCCCC1 [Example 1, 4-Cyclohexyl-2-(morpholin-1-yl)-N-[(4-fluorophenyl)methyl]pyrimidine-5-carboxamide] | +++ (+++ = >200%) | – |
| O=C(NCc1ccc(C(F)(F)F)cc1)c1cnc(N2CCCC2)nc1C(F)(F)F [Example 19] | – | KCNQ2 Current ([1]; at 5 μM): ++** (++ = 151-200%); decrease in field potential compared with vehicle ([2]; 1 mg/kg i.v., 60 minutes following i.v. injection, rat SSS model of migraine, p=0.005): 25.2%; reduction in the SSS-stimulated trigeminal field response ([2]; i.v., rat, overall ANOVA p<0.001): dose-dependent reduction |
| O=C(NCc1ccc(C(F)(F)F)cc1)c1cnc(NCc2ccccc2)nc1N1CCCC1 [Example 37, 2-(Phenylmethylamino)-4-(pyrrolidin-1-yl)-N-[[4-(trifluoromethyl)phenyl]methyl]pyrimidine-5-carboxamide] | ++ (++ = 151-200%) | – |
| O=C(NCc1ccc(C(F)(F)F)cc1)c1cnc(NCc2ccc(Cl)cc2)nc1N1CCCC1 [Example 39, 2-[(4-Chlorophenyl)methylamino]-4-(pyrrolidin-1-yl)-N-[[4-(trifluoromethyl)phenyl]methyl]-pyrimidine-5-carboxamide] | + (+ = 125-150%) | – |

Second part, led by results:

| KCNQ2 Current ([1]; at 20 μM) | SMILES | also measured |
| --- | --- | --- |
| +++ (+++ = >200%) | O=C(NCc1ccc(F)cc1)c1cnc(N2CCCC2)nc1C1CCCCC1 [Example 4, 4-Cyclohexyl-2-(pyrrolidin-1-yl)-N-[(4-fluorophenyl)methyl]pyrimidine-5-carboxamide] | – |
| +++ (+++ = >200%) | CCCc1nc(N2CCCC2)ncc1C(=O)NCc1ccc(F)cc1 [Example 9, 4-(1-Propyl)-2-(pyrrolidin-1-yl)-N-[(4-fluorophenyl)methyl]pyrimidine-5-carboxamide] | – |
